≈ marks a conversion by molar mass, not a printed value.
Assay: Oil solubility test in benzyl benzoate (HPLC)
Assay type: physicochemical
Conditions: organic solvent or mixture, thermodynamic from solid, 25° C., shaken 2 h
Experimental: The solubility test was performed by quantitative analysis using an external standard method of high-performance liquid chromatography.
Reference sample solution: 10 mg of reference sample was weighed, placed in a 20 mL volumetric flask, diluted to the scale with 80% acetonitrile, and shaken uniformly.
Test sample solution: an appropriate amount of sample was dissolved in benzyl benzoate to obtain a saturated solution. The mixture was placed in a shaker and shaken at 25° C. and 800 rpm for 2 h. The sample solution was filtered, and 100 μL of filtrate was added to a 10 mL volumetric flask, diluted to the scale with 80% acetonitrile, and shaken uniformly.

SMILES	solubility at 2 h [mg/mL]
CCCCCCCCCCCCCCCCCCCCCCCCCCC(=O)OCN1C(=O)CCc2ccc(CCN3CCN(c4cc(F)cc5sccc45)CC3)cc21 [Compound 76, (7-(2-(4-(6-fluorobenzo[b]thiophen-4-yl)piperazin-1-yl)ethyl)-2-oxo-3,4-dihydroquinolin-1(2H)-yl)methyl heptacosanoate]	> 200
CCCCCCCCCCCCCCCCC(=O)OCN1C(=O)CCc2ccc(CCN3CCN(c4cc(F)cc5sccc45)CC3)cc21 [Compound 67, (7-(2-(4-(6-Fluorobenzo[b]thiophen-4-yl)piperazin-1-yl)ethyl)-2-oxo-3,4-dihydroquinolin-1(2H)-yl) methyl heptadecanoate]	> 200
C=CCCCCCCCCC(=O)N1C(=O)CCc2ccc(CCN3CCN(c4cc(F)cc5sccc45)CC3)cc21 [Compound 132, 7-(2-(4-(6-Fluorobenzo[b]thiophen-4-yl)piperazin-1-yl)ethyl)-1-(undec-10-enoyl)-3,4-dihydroquinolin-2(1H)-one]	> 200
CCCCCCCCCCCCCCCCCCCCCC(=O)OCN1C(=O)CCc2ccc(CCN3CCN(c4cc(F)cc5sccc45)CC3)cc21 [Compound 74, (7-(2-(4-(6-fluorobenzo[b]thiophen-4-yl)piperazin-1-yl)ethyl)-2-oxo-3,4-dihydroquinolin-1(2H)-yl)methyl docosanoate]	> 200
CCCCCC(C)C(=O)OCN1C(=O)CCc2ccc(CCN3CCN(c4cc(F)cc5sccc45)CC3)cc21 (stereo not drawn) [Compound 110, (7-(2-(4-(6-Fluorobenzo[b]thiophen-4-yl)piperazin-1-yl)ethyl)-2-oxo-3,4-dihydroquinolin-1(2H)-yl) methyl 2-methylheptanoate]	> 200
CCCCCCCC/C=C\CCCCCCCC(=O)OCN1C(=O)CCc2ccc(CCN3CCN(c4cc(F)cc5sccc45)CC3)cc21 [Compound 73, (7-(2-(4-(6-Fluorobenzo[b]thiophen-4-yl)piperazin-1-yl)ethyl)-2-oxo-3,4-dihydroquinolin-1(2H)-yl) methyl oleate]	> 200
CCCCCCCCCC(=O)OCOC(=O)N1C(=O)CCc2ccc(CCN3CCN(c4cc(F)cc5sccc45)CC3)cc21 [Compound 133, (Decanoyloxy)methyl 7-(2-(4-(6-fluorobenzo[b]thiophen-4-yl)piperazin-1-yl)ethyl)-2-oxo-3,4-dihydroquinoline-1(2H)-carboxylate]	> 200
CCCCCCCCCCCC(=O)OCn1c(=O)cc(F)c2ccc(CCN3CCN(c4cc(F)cc5sccc45)CC3)cc21 [Compound 38, (4-Fluoro-7-(2-(4-(6-fluorobenzo[b]thiophen-4-yl)piperazin-1-yl)ethyl)-2-oxoquinolin-1(2H)-yl)methyl dodecanoate]	> 200
C=CCCCCCCCCC(=O)OCN1C(=O)CCc2ccc(CCN3CCN(c4cc(F)cc5sccc45)CC3)cc21 [Compound 72, (7-(2-(4-(6-Fluorobenzo[b]thiophen-4-yl)piperazin-1-yl)ethyl)-2-oxo-3,4-dihydroquinolin-1(2H)-yl) methyl undec-10-enoate]	> 200
CCCCCCCCCC(=O)OCn1c(=O)ccc2ccc(CCN3CCN(c4cc(F)cc5sccc45)CC3)cc21 [Compound 10, (7-(2-(4-(6-Fluorobenzo[b]thiophen-4-yl)piperazin-1-yl)ethyl)-2-oxoquinolin-1(2H)-yl)methyl decanoate]	> 200
CCCCCCCC(=O)OCN1C(=O)CCc2ccc(CCN3CCN(c4cc(F)cc5sccc45)CC3)cc21 [Compound 61, (7-(2-(4-(6-Fluorobenzo[b]thiophen-4-yl)piperazin-1-yl)ethyl)-2-oxo-3,4-dihydroquinolin-1(2H)-yl) methyl octanoate]	> 200
CCCCCCCCCCCC(=O)OCN1C(=O)CC(C)(C)c2ccc(CCN3CCN(c4cc(F)cc5sccc45)CC3)cc21 [Compound 43, (7-(2-(4-(6-Fluorobenzo[b]thiophen-4-yl)piperazin-1-yl)ethyl)-4,4-dimethyl-2-oxo-3,4-dihydroquinolin-1(2H)-yl)methyl dodecanoate]	> 200
CC(C)OC(=O)N1C(=O)CCc2ccc(CCN3CCN(c4cc(F)cc5sccc45)CC3)cc21 [Compound 4]	25.8 (≈ 52 mM)
CCCCCCCCCCCCCCCC(=O)OCn1c(=O)ccc2ccc(CCN3CCN(c4cc(F)cc5sccc45)CC3)cc21 [Compound 9, (7-(2-(4-(6-Fluorobenzo[b]thiophen-4-yl)piperazin-1-yl)ethyl)-2-oxoquinolin-1(2H)-yl)methyl palmitate]	> 200
CCCCCC(CCCCC)C(=O)OCN1C(=O)CCc2ccc(CCN3CCN(c4cc(F)cc5sccc45)CC3)cc21 [Compound 112, (7-(2-(4-(6-Fluorobenzo[b]thiophen-4-yl)piperazin-1-yl)ethyl)-2-oxo-3,4-dihydroquinolin-1(2H)-yl) methyl 2-pentylheptanoate]	> 200
CCCCCCCCCCCC(=O)OCn1c(=O)ccc2ccc(CCN3CCN(c4cc(F)cc5sccc45)CC3)cc21 [Compound 134, (7-(2-(4-(6-Fluorobenzo[b]thiophen-4-yl)piperazin-1-yl)ethyl)-2-oxoquinolin-1(2H)-yl)methyl dodecanoate]	> 200
CCCCCC(CCCCC)C(=O)OCn1c(=O)ccc2ccc(CCN3CCN(c4cc(F)cc5sccc45)CC3)cc21 [Compound 113, (7-(2-(4-(6-Fluorobenzo[b]thiophen-4-yl)piperazin-1-yl)ethyl)-2-oxoquinolin-1(2H)-yl)methyl 2-pentylheptanoate]	> 200
[2H]c1cc(=O)n(COC(=O)CCCCCCCCCCC)c2cc(CCN3CCN(c4cc(F)cc5sccc45)CC3)ccc12 [Compound 51, (7-(2-(4-(6-Fluorobenzo[b]thiophen-4-yl)piperazin-1-yl)ethyl)-2-oxoquinolin-1(2H)-yl-4-d)methyl dodecanoate]	> 200
CCCCCCCCC(=O)OCN1C(=O)CCc2ccc(CCN3CCN(c4cc(F)cc5sccc45)CC3)cc21 [Compound 62, (7-(2-(4-(6-Fluorobenzo[b]thiophen-4-yl)piperazin-1-yl)ethyl)-2-oxo-3,4-dihydroquinolin-1(2H)-yl) methyl nonanoate]	> 200

The remaining lines, values ahead:

solubility at 2 h [mg/mL]	SMILES
> 200	CCCCCCCCOC(=O)OCN1C(=O)CCc2ccc(CCN3CCN(c4cc(F)cc5sccc45)CC3)cc21 [Compound 26, (7-(2-(4-(6-Fluorobenzo[b]thiophen-4-yl)piperazin-1-yl)ethyl)-2-oxo-3,4-dihydroquinolin-1(2H)-yl) methyl octyl carbonate]
> 200	CCCCCCCCCCCCCCOC(=O)OCN1C(=O)CCc2ccc(CCN3CCN(c4cc(F)cc5sccc45)CC3)cc21 [Compound 30, (7-(2-(4-(6-Fluorobenzo[b]thiophen-4-yl)piperazin-1-yl)ethyl)-2-oxo-3,4-dihydroquinolin-1(2H)-yl) methyl tetradecyl carbonate]
> 200	CCCCCCCCCCOC(=O)OCN1C(=O)CCc2ccc(CCN3CCN(c4cc(F)cc5sccc45)CC3)cc21 [Compound 28, Decyl ((7-(2-(4-(6-fluorobenzo[b]thiophen-4-yl)piperazin-1-yl)ethyl)-2-oxo-3,4-dihydroquinolin-1(2H)-yl)methyl) carbonate]
> 200	CCCCCCCCCCC(=O)OCN1C(=O)CCc2ccc(CCN3CCN(c4cc(F)cc5sccc45)CC3)cc21 [Compound 63, (7-(2-(4-(6-Fluorobenzo[b]thiophen-4-yl)piperazin-1-yl)ethyl)-2-oxo-3,4-dihydroquinolin-1(2H)-yl) methyl undecanoate]
> 200	CCCCCCCCCCCCCCC(=O)OCN1C(=O)CCc2ccc(CCN3CCN(c4cc(F)cc5sccc45)CC3)cc21 [Compound 66, (7-(2-(4-(6-Fluorobenzo[b]thiophen-4-yl)piperazin-1-yl)ethyl)-2-oxo-3,4-dihydroquinolin-1(2H)-yl) methyl pentadecanoate]
> 200	CCCCCCCCCCCCCC(=O)OCN1C(=O)CCc2ccc(CCN3CCN(c4cc(F)cc5sccc45)CC3)cc21 [Compound 65, (7-(2-(4-(6-Fluorobenzo[b]thiophen-4-yl)piperazin-1-yl)ethyl)-2-oxo-3,4-dihydroquinolin-1(2H)-yl) methyl tetradecanoate]
> 200	CCCCCCCCCCCCC(=O)OCN1C(=O)CCc2ccc(CCN3CCN(c4cc(F)cc5sccc45)CC3)cc21 [Compound 64, (7-(2-(4-(6-Fluorobenzo[b]thiophen-4-yl)piperazin-1-yl)ethyl)-2-oxo-3,4-dihydroquinolin-1(2H)-yl) methyl tridecanoate]
> 200	CCCCCCCCCCNC(=O)OCN1C(=O)CCc2ccc(CCN3CCN(c4cc(F)cc5sccc45)CC3)cc21 [Compound 71, (7-(2-(4-(6-Fluorobenzo[b]thiophen-4-yl)piperazin-1-yl)ethyl)-2-oxo-3,4-dihydroquinolin-1(2H)-yl) methyl decylcarbamate]
> 200	CCCCCCCCCCCCCCCCOC(=O)OCN1C(=O)CCc2ccc(CCN3CCN(c4cc(F)cc5sccc45)CC3)cc21 [Compound 31, (7-(2-(4-(6-Fluorobenzo[b]thiophen-4-yl)piperazin-1-yl)ethyl)-2-oxo-3,4-dihydroquinolin-1(2H)-yl)methyl hexadecyl carbonate]
> 200	CCCCCCCCCCCCOC(=O)OCN1C(=O)CCc2ccc(CCN3CCN(c4cc(F)cc5sccc45)CC3)cc21 [Compound 29, Dodecyl ((7-(2-(4-(6-fluorobenzo[b]thiophen-4-yl)piperazin-1-yl)ethyl)-2-oxo-3,4-dihydroquinolin-1(2H)-yl)methyl) carbonate]
> 200	CCCCCCCCCCCOC(=O)OCN1C(=O)CCc2ccc(CCN3CCN(c4cc(F)cc5sccc45)CC3)cc21 [Compound 14, (7-(2-(4-(6-Fluorobenzo[b]thiophen-4-yl)piperazin-1-yl)ethyl)-2-oxo-3,4-dihydroquinolin-1(2H)-yl) methyl undecyl carbonate]

From patent publication US20260250272A1, “N-SUBSTITUTED QUINOLINONE COMPOUND, PREPARATION METHOD THEREFOR AND USE THEREOF” (VIGONVITA LIFE SCIENCES CO., LTD., priority 2022, published 2026)
